Experimental data published in patent US8871815B2, “Therapeutic compounds” (Signature Therapeutics, Inc., priority 2007, dated 2014).

Assays:
[1] = Pharmacokinetic study in domestic pigs, IV infusion; format: in vivo, pig
[2] = Anesthetic effects in rats, bolus IV, Loss of Righting Reflex (LORR); format: in vivo, rat; conditions: male, Sprague-Dawley, rat, in vivo; bolus IV, rats; read-out: MTD (maximum tolerated dose)
Method: (§1) Also measured was minimum dose to achieve LORR and maximum tolerated dose (MTD).
(§2) The ranges of doses studied were 1.9, 2.3, 3.0, 7.0, 13.7, 14.0 and 15.2 mg/kg for Compound 1 and 3.5, 4.0, 7.0 and 14.0 mg/kg for […].

[3] = test system: male Sprague-Dawley rats; assay: as above; format: in vivo, rat; conditions: rats
Method: as §1, §2

[4] = test system: pigs; assay: Hemodynamic effects, arterial blood gas and serum chemistry in pigs, IV infusion; format: in vivo, pig; design: ABEc (acid base excess, corrected) / Glucose / Lactate: unit not given here; conditions: for ABEc (acid base excess, corrected) / Glucose / Lactate / Potassium / pC02 / pH / pO2: arterial blood, 0.384 mg/kg/min x 20 min IV
Method: Anesthesia was induced with isoflurane. Intravascular access was obtained from an ear vein. Each pig was intubated and mechanically ventilated.
ECG was monitored throughout the study. […] Body temperature was maintained at 37° C.
Arterial blood gas samples from pigs infused with Compound 1 were taken and analyzed for blood gas and serum chemistry values; mean values are reported in Table 4.

[5] = test system: ferrets; assay: Pro-emetic activity in ferrets; format: in vivo, ferret; conditions: 15 min IV infusion at 1 mg/kg/min, administered alone, 6 ferrets, 45 min
Text: Immediately prior to dosing, food and water were removed.

CC[C@@H](C)c1cccc([C@H](C)CC)c1O [Compound 1]
Clearance ([1]; pig, IV infusion): exceeded estimated hepatic blood flow | metabolic pathway ([1]; pigs): glucuronidation in the 1-position with the 4-position being subject to hydroxylation followed by glucuronide and sulfate conjugation | MTD [2]: 14 mg/kg | deaths ([3]; 15.2 mg/kg bolus IV): Two rats died | HD50 (dose required to cause 50% of the rats to lose righting reflex) ([3]; bolus IV): 2.1 mg/kg | HD7min (dose required to produce 7 minutes of anesthesia) ([3]; bolus IV): 2.3 mg/kg | TI (therapeutic index, ratio of MTD to HD7 min) ([3]; bolus IV): 6.1 | metabolic alterations such as metabolic acidosis or increased lactate ([4]; IV infusion, pigs): did not produce any significant metabolic alterations | reduction of cardiac output compared to propofol ([4]; IV infusion, pigs): no significant difference | lowest HR measured ([4]; IV infusion, pigs (Compound 1 0.384, propofol 0.750 mg/kg/min)): 129±6 bpm | MAP (mean arterial pressure) ([4]; IV infusion, pigs (Compound 1 0.384, propofol 0.750 mg/kg/min), FIG. 1 in mm Hg): 106±3 | ABEc (acid base excess, corrected) ([4]; pigs, Min 0): 5.6 | Glucose ([4]; pigs, Min 0): 99.6 | Lactate ([4]; pigs, Min 0): 1.43 | Potassium ([4]; pigs, Min 0): 3.80 | pC02 ([4]; pigs, Min 0): 38.8 | pH ([4]; pigs, Min 0): 7.4861 | pO2 ([4]; pigs, Min 0): 390 | ABEc (acid base excess, corrected) ([4]; pigs, Min 4): 5.8 | Glucose ([4]; pigs, Min 4): 102.9 | Lactate ([4]; pigs, Min 4): 1.24 | Potassium ([4]; pigs, Min 4): 3.71 | pC02 ([4]; pigs, Min 4): 37.2 | pH ([4]; pigs, Min 4): 7.5027 | pO2 ([4]; pigs, Min 4): 410 | ABEc (acid base excess, corrected) ([4]; pigs, Min 20): 5.7 | Glucose ([4]; pigs, Min 20): 102.0 | Lactate ([4]; pigs, Min 20): 1.20 | Potassium ([4]; pigs, Min 20): 3.84 | pC02 ([4]; pigs, Min 20): 36.8 | pH ([4]; pigs, Min 20): 7.5066 | pO2 ([4]; pigs, Min 20): 419 | ABEc (acid base excess, corrected) ([4]; pigs, Min 80): 5.4 | Glucose ([4]; pigs, Min 80): 99.7 | Lactate ([4]; pigs, Min 80): 1.01 | Potassium ([4]; pigs, Min 80): 4.00 | pC02 ([4]; pigs, Min 80): 37.5 | pH ([4]; pigs, Min 80): 7.4943 | pO2 ([4]; pigs, Min 80): 402 | ABEc (acid base excess, corrected) ([4]; pigs, Min 140): 4.1 | Glucose ([4]; pigs, Min 140): 100.7 | Lactate ([4]; pigs, Min 140): 0.95 | Potassium ([4]; pigs, Min 140): 4.10 | pC02 ([4]; pigs, Min 140): 37.2 | pH ([4]; pigs, Min 140): 7.4803 | pO2 ([4]; pigs, Min 140): 399 | ABEc (acid base excess, corrected) ([4]; pigs, Min 200): 3.2 | Glucose ([4]; pigs, Min 200): 102.4 | Lactate ([4]; pigs, Min 200): 0.96 | Potassium ([4]; pigs, Min 200): 4.06 | pC02 ([4]; pigs, Min 200): 37.6 | pH ([4]; pigs, Min 200): 7.4641 | pO2 ([4]; pigs, Min 200): 356 | episodes of vomiting or retching [5]: did not produce any episodes of vomiting or retching
